Tested on: erythrocytes of human peripheral whole blood
Experiment: hemolysis assay
Format: cell-based
Settings: photograph of the microplate before absorbance reading
Method: The hemolysis assay is a required biocompatibility test for all blood-contacting devices. […] The hemolysis assay protocol we used was adapted from the one used by Bae and coworkers (Bae, I.-H., Park, I.-K., Park, D. S., Lee, H. and Jeong, M. H. 2012. Journal of Materials Science: Materials in Medicine 23 (5): 1259-1269.) as detailed below.
Coated and bare CoCr disks were placed in the wells of a 96-well plate and sterilized by a ten minute incubation in 70° ethanol. The disks were rinsed several times in water prior to a final wash in physiological saline solution (0.9% NaCl). […]
Disk-free wells were used as negative controls and 1% Triton X-100 (which causes the lysis of most erythrocytes through the dissolution of their plasma cell membrane) was added in blood-containing positive control wells. […] Absorbance was measured at 540 nm in a plate reader spectrophotometer (Infinite 200 PRO, TECAN). 540 nm corresponds to the absorbance peak of free hemoglobin, which is released by hemolysis from the erythrocytes. The value of the absorbance at 540 nm is therefore directly proportional to the extent of hemolysis caused by the sample disks in the experimental wells. […]
For each experiment, these observations were quantified by absorbance reading at 540 nm, and the measurements were normalized using the values obtained with the positive and negative controls, according to the following formula: […]

Substance: Triton X-100
- macroscopic colour of platelet-poor plasma (hemolysis): effective hemolysis

Reference: US20220001083A1, “METHOD FOR THE MODIFICATION OF A DEVICE SURFACE BY GRAFTING A CD31-DERIVED PEPTIDE ONTO THE SURFACE OF SAID DEVICE” (BALT EXTRUSION, priority 2018, published 2022)
